The text below walks through data of PubChem BioAssay AID328 (DTP/NCI, 2004).

This experiment concerns BDF1 mice, P388 leukemia ip, median survival T/C. The experiment in a line: NCI In Vivo Anticancer Drug Screen. Data for tumor model P388 Leukemia (intraperitoneal) in B6D2F1 (BDF1) mice. Conditions: endpoint: median survival time, higher = longer survival. In short, it runs like this: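 Transplantable tumour in mice; compound vs vehicle dosing; survival scored; ratio of treated to control reported.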

Where [1] appears, read: dose: 100.0 mg/kg/injection, schedule: Q04DX003 (ip), vehicle: Klucel (hydroxypropylcellulose) (HPC).
[2] abbreviates: dose: 50.0 mg/kg/injection, schedule: Q01DX009 (ip), vehicle: saline with Tween-80.
The mark [3] stands for this setting: dose: 100.0 mg/kg/injection, schedule: Q01DX009 (ip), vehicle: saline with Tween-80.
Where [4] appears, read: dose: 100.0 mg/kg/injection, schedule: Q04DX003 (ip), vehicle: saline with Tween-80.
The mark [5] stands for this setting: dose: 200.0 mg/kg/injection, schedule: Q01DX009 (ip), vehicle: saline with Tween-80.
Setting [6] is: dose: 200.0 mg/kg/injection, schedule: Q04DX003 (ip), vehicle: saline with Tween-80.
The mark [7] stands for this setting: dose: 400.0 mg/kg/injection, schedule: Q01DX009 (ip), vehicle: saline with Tween-80.
[8] abbreviates: dose: 400.0 mg/kg/injection, schedule: Q04DX003 (ip), vehicle: saline with Tween-80.
The mark [9] stands for this setting: dose: 50.0 mg/kg/injection, schedule: Q01DX009 (ip), vehicle: saline.
[10] abbreviates: dose: 100.0 mg/kg/injection, schedule: Q01DX009 (ip), vehicle: saline.
The mark [11] stands for this setting: dose: 100.0 mg/kg/injection, schedule: Q04DX003 (ip), vehicle: saline.
The mark [12] stands for this setting: dose: 200.0 mg/kg/injection, schedule: Q01DX009 (ip), vehicle: saline.
The mark [13] stands for this setting: dose: 200.0 mg/kg/injection, schedule: Q04DX003 (ip), vehicle: saline.
Setting [14] is: dose: 400.0 mg/kg/injection, schedule: Q04DX003 (ip), vehicle: saline.
[15] abbreviates: dose: 50.0 mg/kg/injection, schedule: Q01DX009 (ip), vehicle: Klucel (hydroxypropylcellulose) (HPC).
Where [16] appears, read: dose: 100.0 mg/kg/injection, schedule: Q01DX009 (ip), vehicle: Klucel (hydroxypropylcellulose) (HPC).

Values joined by “and” are separate entries in the source; they are usually repeats but may differ in a detail not shown here. Equal entries are not always repeated. Inconclusive results and toxic doses are left out.

`Clc1c(Cl)c(CBr)c(Cl)c(CBr)c1Cl`: the T/C reads like this: (dose: 20.0 mg/kg/injection, schedule: Q01DX009 (ip), vehicle: Klucel (hydroxypropylcellulose) (HPC)) 100 % of control; (dose: 40.0 mg/kg/injection, schedule: Q01DX009 (ip), vehicle: Klucel (hydroxypropylcellulose) (HPC)) 95 % of control; (dose: 50.0 mg/kg/injection, schedule: Q01DX009 (ip), vehicle: saline sonified) 113 % of control; (dose: 50.0 mg/kg/injection, schedule: Q04DX003 (ip), vehicle: Klucel (hydroxypropylcellulose) (HPC)) 100 % of control; (dose: 88.0 mg/kg/injection, schedule: Q04DX003 (ip), vehicle: Klucel (hydroxypropylcellulose) (HPC)) 108 % of control; (dose: 100.0 mg/kg/injection, schedule: Q01DX009 (ip), vehicle: saline sonified) 118 % of control. Moreover, the T/C by setting is: under setting [1], 110 % of control; (dose: 132.0 mg/kg/injection, schedule: Q04DX003 (ip), vehicle: Klucel (hydroxypropylcellulose) (HPC)) 91 % of control; (dose: 132.0 mg/kg/injection, schedule: Q04DX003 (ip), vehicle: saline sonified) 122 % of control; (dose: 200.0 mg/kg/injection, schedule: Q04DX003 (ip), vehicle: saline sonified) 150 % of control.
With `Cc1ccc(C(=O)NCCCOc2ccc([N+](=O)[O-])cc2Cl)cc1S(=O)(=O)F`, the T/C reads like this: under setting [2], 98 % of control; under setting [3], 114 % of control; under setting [4], 99 % of control; under setting [5], 98 % of control; under setting [6], 99 % of control; under setting [7], 107 % of control. Also, under setting [8], the T/C is 90 % of control.
As to `O=C(O)c1ccc(N2C(=O)c3ccccc3C2=O)cc1[N+](=O)[O-]`, the T/C is, setting by setting: under setting [9], 106 % of control; under setting [10], 107 % of control; under setting [11], 99 % of control; under setting [12], 111 % of control; under setting [13], 105 % of control; under setting [14], 99 % of control.
As to `O=C1c2cccc(O)c2C(=O)c2c(O)cccc21`, the T/C is 100 % of control and 109 % of control under setting [11]; 109 % of control under setting [13]; 95 % of control and 118 % of control under setting [14].
As to `CCOC(=O)c1[nH]cnc1/N=N/N(C)C`, the T/C reads like this: (dose: 26.4 mg/kg/injection, schedule: Q01DX009 (ip), vehicle: saline with Tween-80) 175 % of control; (dose: 60.0 mg/kg/injection, schedule: Q01DX009 (ip), vehicle: saline with Tween-80) 87 % of control.
Take `NC(=O)/C=C/C(=O)O`: the T/C was 101 % of control (dose: 25.0 mg/kg/injection, schedule: Q01DX009 (ip), vehicle: saline); 93 % of control under setting [9]; 103 % of control under setting [10]; 101 % of control under setting [12].
For the compound `O=C(Nc1ccccc1)Nn1cnc2ccccc2c1=O`, the T/C reads like this: under setting [4], 90 % of control; under setting [6], 100 % of control; under setting [8], 100 % of control.
As for `COc1cc2c(cc1NC(=O)N(CCCl)N=O)-c1ccccc1C2`, the T/C is, setting by setting: (dose: 8.3 mg/kg/injection, schedule: Q04DX003 (ip), vehicle: Klucel (hydroxypropylcellulose) (HPC)) 108 % of control; (dose: 12.0 mg/kg/injection, schedule: Q04DX003 (ip), vehicle: Klucel (hydroxypropylcellulose) (HPC)) 113 % of control; (dose: 19.0 mg/kg/injection, schedule: Q04DX003 (ip), vehicle: Klucel (hydroxypropylcellulose) (HPC)) 154 % of control; (dose: 29.0 mg/kg/injection, schedule: Q04DX003 (ip), vehicle: Klucel (hydroxypropylcellulose) (HPC)) 154 % of control; (dose: 45.0 mg/kg/injection, schedule: Q04DX003 (ip), vehicle: Klucel (hydroxypropylcellulose) (HPC)) 172 % of control; (dose: 65.0 mg/kg/injection, schedule: Q04DX003 (ip), vehicle: Klucel (hydroxypropylcellulose) (HPC)) 190 % of control. Further, the T/C is 168 % of control under setting [1]; 172 % of control (dose: 200.0 mg/kg/injection, schedule: Q04DX003 (ip), vehicle: Klucel (hydroxypropylcellulose) (HPC)); 209 % of control (dose: 400.0 mg/kg/injection, schedule: Q04DX003 (ip), vehicle: Klucel (hydroxypropylcellulose) (HPC)).
Turning to `N#Cc1cccc(O)c1`, the T/C was 104 % of control under setting [2], 100 % of control under setting [3] and 109 % of control under setting [5].
For `NCCNc1c[nH]c(=O)[nH]c1=O`, in that order: 110 % of control, 103 % of control and 103 % of control.
On to `NC(=O)NN=C1COC(c2ccccc2)OC1` (stereo not given), for which the T/C by setting is: under setting [9], 110 % of control; under setting [10], 110 % of control; under setting [11], 116 % of control; under setting [12], 91 % of control; under setting [13], 104 % of control.
With `Cc1noc(-c2ccc([N+](=O)[O-])o2)n1`, the T/C is, setting by setting: under setting [15], 93 % of control; under setting [16], 101 % of control.
Turning to `CCOC(=O)c1c[nH]c2nc(SC)nc(NC(C)=O)c2c1=O`, the T/C was 102 % of control under setting [2], 87 % of control under setting [3] and 89 % of control under setting [5].
For `ClC1(Cl)OC(Cl)(Cl)C(Cl)(Cl)OC1(Cl)Cl`, the T/C is, setting by setting: under setting [15], 95 % of control; under setting [16], 95 % of control; (dose: 200.0 mg/kg/injection, schedule: Q01DX009 (ip), vehicle: Klucel (hydroxypropylcellulose) (HPC)) 109 % of control.
Consider `CCOC1(OCC)OC(c2ccccc2)=C(C#N)C(/C=C\c2ccccc2)C1(OCC)OCC` (stereo not given), for which the T/C was 92 % of control under setting [2], 92 % of control under setting [3] and 90 % of control under setting [5].
For `COc1ccc(/C=C/c2ccc3ccccc3[n+]2C)c(OC)c1OC`, the T/C (dose: 5.0 mg/kg/injection, schedule: Q01DX009 (ip), vehicle: Klucel (hydroxypropylcellulose) (HPC)) was 109 % of control.
As for `CC(O)C(NCNC(=O)C1=C(O)C2(O)C(=O)C3=C(O)c4c(O)cccc4C(C)(O)C3CC2C(N(C)C)C1=O)C(=O)O` (stereo not given), the T/C is 91 % of control under setting [3], 100 % of control under setting [5] and 87 % of control under setting [7].
For the compound `CC(=O)[C@@]1(O)CC[C@H]2[C@@H]3C[C@H](C)C4=CC(=O)CC[C@]4(C)[C@H]3[C@@H](O)C[C@@]21C`, the T/C reads like this: under setting [4], 109 % of control; under setting [5], 122 % of control; under setting [6], 109 % of control; under setting [7], 90 % of control; under setting [8], 118 % of control.
Regarding `CC1(C)N=C(N)N=C(N)N1c1cccc(CCCCOc2ccccc2)c1`, the T/C (dose: 8.0 mg/kg/injection, schedule: Q01DX009 (ip), vehicle: saline with Tween-80) was 150 % of control; the T/C (dose: 12.0 mg/kg/injection, schedule: Q01DX009 (ip), vehicle: saline with Tween-80) is 150 % of control; the T/C (dose: 18.0 mg/kg/injection, schedule: Q01DX009 (ip), vehicle: saline with Tween-80) was 170 % of control.
On to `COc1cc(/C=N/NC(=O)C(=O)Nc2cccc(Cl)c2)cc(OC)c1O`, for which the T/C reads like this: (dose: 50.0 mg/kg/injection, schedule: Q01DX005 (ip), vehicle: saline with Tween-80) 91 % of control; (dose: 100.0 mg/kg/injection, schedule: Q01DX005 (ip), vehicle: saline with Tween-80) 100 % of control; (dose: 200.0 mg/kg/injection, schedule: Q01DX005 (ip), vehicle: saline with Tween-80) 100 % of control.
`COc1ccc(C2=CC(c3ccc(OC)c(OC)c3)c3c(c4ccccc4oc3=O)O2)cc1OC` (stereo not given): the T/C by setting is: (dose: 12.5 mg/kg/injection, schedule: Q01DX009 (ip), vehicle: water) 98 % of control; (dose: 25.0 mg/kg/injection, schedule: Q01DX009 (ip), vehicle: water) 100 % of control; (dose: 25.0 mg/kg/injection, schedule: Q04DX003 (ip), vehicle: water) 97 % of control; (dose: 50.0 mg/kg/injection, schedule: Q01DX009 (ip), vehicle: water) 97 % of control; (dose: 50.0 mg/kg/injection, schedule: Q04DX003 (ip), vehicle: water) 94 % of control; (dose: 100.0 mg/kg/injection, schedule: Q01DX009 (ip), vehicle: water) 96 % of control and 97 % of control. Also, the T/C by setting is: (dose: 200.0 mg/kg/injection, schedule: Q04DX003 (ip), vehicle: water) 97 % of control; (dose: 400.0 mg/kg/injection, schedule: Q01DX009 (ip), vehicle: water) 106 % of control; (dose: 400.0 mg/kg/injection, schedule: Q04DX003 (ip), vehicle: water) 97 % of control.
